Laboratory results as given in publication PMC6766947, “Multi-Armed 1,2,3-Selenadiazole and 1,2,3-Thiadiazole Benzene Derivatives as Novel Glyoxalase-I Inhibitors” (Molecules, 2019).

Target: T1, human recombinant Glo-I (rhGlo-I) (Homo sapiens, UniProt Q04760)
T1 construct: purchased R&D Systems
T1 sequence (Q04760 2-184 limits assumed): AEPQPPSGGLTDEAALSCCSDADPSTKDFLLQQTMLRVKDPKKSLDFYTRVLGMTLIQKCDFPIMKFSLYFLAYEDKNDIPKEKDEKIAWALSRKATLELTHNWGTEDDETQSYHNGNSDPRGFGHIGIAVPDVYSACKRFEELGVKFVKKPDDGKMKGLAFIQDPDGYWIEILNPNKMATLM
Experiment: In vitro Glo-I enzyme inhibition assay (UV-Vis, 240 nm)
Format: biochemical
Settings: for IC50: rhGlo-I, triplicates, 240 nm, 200 s, 25 °C, pH 7.0–7.2
Experimental: A total of twelve synthesized multi-arm benzene derivatives of 1,2,3-selenadiazole and 1,2,3-thiadiazole by M. Al-Smadi et al. were selected for the present study. The in vitro inhibitory activity of the compounds against the human Glo-I enzyme was measured using double-beam UV-Vis spectrophotometer (Biotech Engineering Management Co. Ltd., UK).
The Glo-I inhibitory activity was determined as reported previously. Briefly, human recombinant Glo-I (rhGlo-I), provided by R&D Systems® Corporation, was reconstituted by dissolving 0.5 mg/mL of it in sterile, deionized water before storing at –70 °C. The tested compounds were dissolved in DMSO to 10 mM stock solution. The assay buffer was prepared by mixing 0.1 M sodium phosphate dibasic solution and 0.1 M sodium phosphate monobasic solution with a pH of 7.0–7.2. The substrate mixture was prepared by mixing a suitable volume of 0.1 M sodium phosphate assay buffer with 100 mM methylglyoxal solution and 100 mM reduced glutathione. Finally, the tested compounds were mixed with the assay buffer, substrate solution mixture, and the Glo-I enzyme in a cuvette at an appropriate tested concentration. Each compound was tested in triplicates at λmax = 240 nm for 200 s at 25 °C.

Compound	IC50 [nM]	activity relative to selenium containing counterpart (fold difference in Glo-I inhibitory activity, sulfur vs selenium analogue)
c1c(COc2ccc(-c3csnn3)cc2)cc(COc2ccc(-c3csnn3)cc2)cc1COc1ccc(-c2csnn2)cc1 [Compound 8]	3000 ± 150	
c1cc(-c2csnn2)ccc1OCc1cc(COc2ccc(-c3csnn3)cc2)c(COc2ccc(-c3csnn3)cc2)cc1COc1ccc(-c2csnn2)cc1 [Compound 10]	2400 ± 130	eight times more active
c1cc(-c2c[se]nn2)ccc1OCc1c(COc2ccc(-c3c[se]nn3)cc2)c(COc2ccc(-c3c[se]nn3)cc2)c(COc2ccc(-c3c[se]nn3)cc2)c(COc2ccc(-c3c[se]nn3)cc2)c1COc1ccc(-c2c[se]nn2)cc1 [Compound 11]	8300 ± 560	
c1cc(-c2csnn2)ccc1OCc1c(COc2ccc(-c3csnn3)cc2)c(COc2ccc(-c3csnn3)cc2)c(COc2ccc(-c3csnn3)cc2)c(COc2ccc(-c3csnn3)cc2)c1COc1ccc(-c2csnn2)cc1 [Compound 12]	2670 ± 310	
